Results on ten compounds are retold here after patent US20250179047A1, “5-[7-(3,4-DIHYDRO-1H-ISOQUINOLINE-2-CARBONYL)-1,2,3,4 TETRAHYDROISOQUINOLIN-6-YL]-1H-PYRROLE-3-CARBOXAMIDE DERIVATIVES, PHARMACEUTICAL COMPOSITIONS CONTAINING THEM AND THEIR USES AS PRO-APOPTOTIC AGENTS” (LES LABORATOIRES SERVIER, priority 2022, published 2025).

The target in one assay is BCL2 WT (Homo sapiens (Human), UniProt P10415). As to the kind of experiment: TR-FRET competitive binding assay, BCL2 WT. As to conditions: Ki determined from IC50, read-out: TR_FRET EKI_Bcl2 WT. In a few lines: (§1)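 Competitive TR-FRET displacement of fluorescein-PUMA peptide (2 or 20 nM) from 0.5 nM terbium-labelled N-terminal Halo-fusion BCL2 (1-207, wild type or mutant) or BCLXL (2-196), expressed in E. coli. Buffer 50 mM Hepes pH 7.5, 150 mM NaCl, 5% DMSO; 2 h at 23°C. 520/495 nm ratio fitted over 11 points for IC50, converted to Ki.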

Another assay addresses BCL2 D103Y (Homo sapiens, UniProt P10415, D103Y). As to the kind of experiment: TR-FRET competitive binding assay, BCL2 D103Y. As to conditions: Ki determined from IC50, read-out: TR_FRET EKI_Bcl2 D103Y. In a few lines:
as §1

For the next assay, the target named is BCLXL WT (Homo sapiens (Human), UniProt Q07817). The assay is described as follows: TR-FRET competitive binding assay, BCLXL WT. Particulars: for Ki: BCLXL WT, Ki determined from IC50, read-out: TR_FRET EKI BclxL; for TR_FRET EKI BCLxL/WT selectivty ratio: ratio Ki BCLxL / Ki BCL2 WT. In a few lines: as §1
Sequence of BCLXL WT (Q07817 other isoform, or with tags, fused parts or gaps): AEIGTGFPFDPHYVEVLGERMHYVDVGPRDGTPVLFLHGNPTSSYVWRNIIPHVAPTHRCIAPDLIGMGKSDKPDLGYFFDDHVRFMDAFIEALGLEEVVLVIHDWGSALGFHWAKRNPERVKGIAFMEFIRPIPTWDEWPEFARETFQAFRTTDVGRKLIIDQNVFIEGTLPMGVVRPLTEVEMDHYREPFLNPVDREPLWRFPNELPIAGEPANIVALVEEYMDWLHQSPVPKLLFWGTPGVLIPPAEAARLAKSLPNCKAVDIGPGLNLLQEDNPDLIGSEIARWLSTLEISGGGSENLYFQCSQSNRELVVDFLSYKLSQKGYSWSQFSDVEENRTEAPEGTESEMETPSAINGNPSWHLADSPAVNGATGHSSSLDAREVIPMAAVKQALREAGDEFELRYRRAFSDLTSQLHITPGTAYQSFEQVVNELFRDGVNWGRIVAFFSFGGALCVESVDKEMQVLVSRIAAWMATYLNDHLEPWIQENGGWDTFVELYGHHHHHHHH
Assay [1] concerns BCL2 G101V. The assay is described as follows: TR-FRET competitive binding assay, BCL2 G101V. Also noted: species or system human. Particulars: ratio Ki BCL2 G101V / Ki BCL2 WT. The method, boiled down: as §1
Assay [2] has as its target BCL2 G101V (Homo sapiens, UniProt P10415, G101V). As to the kind of experiment: TR-FRET competitive binding assay, BCL2 G101V. Particulars: BCL2 G101V; Ki determined from IC50; read-out: TR_FRET EKI_Bcl2 G101V. The method, boiled down: as §1
The next assay deals with KMS-12-PE Bcl-2 WT. As to the kind of experiment: In vitro cytotoxicity CellTiter-Glo 48 h, KMS-12-PE Bcl-2 WT. Format: cell-based. Particulars: Homo sapiens, KMS-12-PE, C50 = concentration needed to reach 50% of the cellular viability. In a few lines: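 CTG luminescence read-out; C50 = concentration reaching 50% cellular viability. Cells: KMS-12-PE expressing Bcl-2 WT or G101V (lentiviral, TagRFP-sorted). 11-pt curve, 48 h, 37 °C/5% CO2.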

With `Cc1c(C(=O)N(c2ccccc2)c2cnn(C(F)F)c2)cc(-c2cc3c(cc2C(=O)N2Cc4ccccc4C[C@H]2C)CN(C(=O)Cc2ccc(OCCN4CCOCC4)cc2)CC3)n1C` [Example 190, N-[1-(difluoromethyl)pyrazol-4-yl]-1,2-dimethyl-5-[7-[(3R)-3-methyl-3,4-dihydro-1H-isoquinoline-2-carbonyl]-2-[2-[4-(2-morpholinoethoxy)phenyl]acetyl]-3,4-dihydro-1H-isoquinolin-6-yl]-N-phenyl-pyrrole-3-carboxamide], the Ki came to 0.05 nM at BCL2 WT, 0.12 nM at BCL2 D103Y, 16.8 nM at BCLXL WT and 3.6 nM on BCL2 G101V [2]. Besides, the “TR_FRET EKI BCLxL/WT selectivty ratio” value on BCLXL WT is given as 342.7. The “TR_FRET EKI G101V/WT selectivty ratio” value in the assay with BCL2 G101V [1] was found to be 73.4. Besides, in the assay on KMS-12-PE Bcl-2 WT, the IC50 came out at 0.0077 µM.

On to `COc1ccc(N(C(=O)c2cc(-c3cc4c(cc3C(=O)N3Cc5ccccc5C[C@H]3C)CN(C(=O)Cc3ccc(OCCN5CCOCC5)cc3)CC4)n(C)c2C)c2ccccc2)cn1` [Example 191, N-(6-methoxy-3-pyridyl)-1,2-dimethyl-5-[7-[(3R)-3-methyl-3,4-dihydro-1H-isoquinoline-2-carbonyl]-2-[2-[4-(2-morpholinoethoxy)phenyl]acetyl]-3,4-dihydro-1H-isoquinolin-6-yl]-N-phenyl-pyrrole-3-carboxamide], for which the Ki on BCL2 WT was determined as 0.04 nM; on BCL2 D103Y it was 0.07 nM; on BCLXL WT, 9.5 nM; on BCL2 G101V [2] it was 2.4 nM. In addition, the “TR_FRET EKI BCLxL/WT selectivty ratio” value on BCLXL WT is 264.0. Moreover, in the assay with BCL2 G101V [1], the “TR_FRET EKI G101V/WT selectivty ratio” value amounted to 65.3. The same compound had an IC50 with KMS-12-PE Bcl-2 WT of 0.0131 µM.

`COc1ccc(N(C(=O)c2cc(-c3cc4c(cc3C(=O)N3Cc5ccccc5C[C@H]3C)CN(C(=O)Cc3ccc(OCCN5CCOCC5)cc3F)CC4)n(C)c2C)c2ccccc2)cn1` [Example 192, 5-[2-[2-[2-fluoro-4-(2-morpholinoethoxy)phenyl]acetyl]-7-[(3R)-3-methyl-3,4-dihydro-1H-isoquinoline-2-carbonyl]-3,4-dihydro-1H-isoquinolin-6-yl]-N-(6-methoxy-3-pyridyl)-1,2-dimethyl-N-phenyl-pyrrole-3-carboxamide]: the Ki came out at 0.04 nM at BCL2 WT, 0.11 nM at BCL2 D103Y, 7.7 nM on BCLXL WT and 2.6 nM on BCL2 G101V [2]. The “TR_FRET EKI BCLxL/WT selectivty ratio” value at BCLXL WT came out at 175.0. Further, the “TR_FRET EKI G101V/WT selectivty ratio” value in the assay with BCL2 G101V [1] amounted to 58.9. This compound also displayed an IC50 in the assay on KMS-12-PE Bcl-2 WT of 0.0083 µM.

For `Cc1c(C(=O)N(c2ccccc2)c2cnn(C(F)F)c2)cc(-c2cc3c(cc2C(=O)N2Cc4ccccc4C[C@H]2C)CN(C(=O)Cc2ccc(OCCN4CCOCC4)cc2F)CC3)n1C` [Example 193, N-[1-(difluoromethyl)pyrazol-4-yl]-5-[2-[2-[2-fluoro-4-(2-morpholinoethoxy)phenyl]acetyl]-7-[(3R)-3-methyl-3,4-dihydro-1H-isoquinoline-2-carbonyl]-3,4-dihydro-1H-isoquinolin-6-yl]-1,2-dimethyl-N-phenyl-pyrrole-3-carboxamide], the Ki on BCL2 WT turned out to be 0.04 nM; on BCL2 D103Y, 0.1 nM; at BCLXL WT, 11 nM; on BCL2 G101V [2], 3.1 nM. Besides, the “TR_FRET EKI BCLxL/WT selectivty ratio” value at BCLXL WT is listed as 256.9. Also, the “TR_FRET EKI G101V/WT selectivty ratio” value with BCL2 G101V [1] turned out to be 72.0. Also, inhibition in the assay with KMS-12-PE Bcl-2 WT was half-maximal at 0.0062 µM (IC50).

Consider `Cc1c(C(=O)N(c2ccccc2)c2cnc3c(cnn3C)c2)cc(-c2cc3c(cc2C(=O)N2Cc4ccccc4C[C@H]2C)CN(C(=O)Cc2ccc(OCCN4CCOCC4)cc2F)CC3)n1C` [Example 194, 5-[2-[2-[2-fluoro-4-(2-morpholinoethoxy)phenyl]acetyl]-7-[(3R)-3-methyl-3,4-dihydro-1H-isoquinoline-2-carbonyl]-3,4-dihydro-1H-isoquinolin-6-yl]-1,2-dimethyl-N-(1-methylpyrazolo[3,4-b]pyridin-5-yl)-N-phenyl-pyrrole-3-carboxamide], for which the Ki at BCL2 WT turned out to be 0.03 nM; on BCL2 D103Y, 0.08 nM; on BCLXL WT it was 3.3 nM; on BCL2 G101V [2], 1 nM. In addition, on BCLXL WT, the “TR_FRET EKI BCLxL/WT selectivty ratio” value is 115.0. Further, the “TR_FRET EKI G101V/WT selectivty ratio” value in the assay on BCL2 G101V [1] worked out at 35.7. The compound also gave an IC50 with KMS-12-PE Bcl-2 WT of 0.0026 µM.

On to `Cc1c(C(=O)N(c2ccccc2)c2cnc3c(cnn3C)c2)cc(-c2cc3c(cc2C(=O)N2Cc4ccccc4C[C@H]2C)CN(C(=O)Cc2ccc(OCCN4CCOCC4)cc2)CC3)n1C` [Example 195, 1,2-dimethyl-5-[7-[(3R)-3-methyl-3,4-dihydro-1H-isoquinoline-2-carbonyl]-2-[2-[4-(2-morpholinoethoxy)phenyl]acetyl]-3,4-dihydro-1H-isoquinolin-6-yl]-N-(1-methylpyrazolo[3,4-b]pyridin-5-yl)-N-phenyl-pyrrole-3-carboxamide], for which the Ki is 0.014 nM on BCL2 WT, 0.05 nM on BCL2 D103Y, 5 nM on BCLXL WT and 0.9 nM at BCL2 G101V [2]. Moreover, the “TR_FRET EKI BCLxL/WT selectivty ratio” value at BCLXL WT is 359.1. Also, the “TR_FRET EKI G101V/WT selectivty ratio” value in the assay with BCL2 G101V [1] turned out to be 63.6. In the assay on KMS-12-PE Bcl-2 WT, this compound registered an IC50 of 0.0041 µM.

For `COCCn1cc(N(C(=O)c2cc(-c3cc4c(cc3C(=O)N3Cc5ccccc5C[C@H]3C)CN(C(=O)Cc3ccc(OCCN5CCOCC5)cc3)CC4)n(C)c2C)c2ccccc2)cn1` [Example 196, N-[1-(2-methoxyethyl)pyrazol-4-yl]-1,2-dimethyl-5-[7-[(3R)-3-methyl-3,4-dihydro-1H-isoquinoline-2-carbonyl]-2-[2-[4-(2-morpholinoethoxy)phenyl]acetyl]-3,4-dihydro-1H-isoquinolin-6-yl]-N-phenyl-pyrrole-3-carboxamide], the Ki on BCL2 WT was 0.03 nM; on BCL2 D103Y it was 0.09 nM; at BCLXL WT, 9.6 nM; on BCL2 G101V [2] it was 2.7 nM. Moreover, on BCLXL WT, the “TR_FRET EKI BCLxL/WT selectivty ratio” value was determined as 301.1. In the assay on BCL2 G101V [1], the “TR_FRET EKI G101V/WT selectivty ratio” value is given as 83.2. Further, it took 0.0089 µM to reach half-maximal inhibition in the assay with KMS-12-PE Bcl-2 WT (IC50).

With `Cc1c(C(=O)N(c2ccccc2)c2cnn(C)c2)cc(-c2cc3c(cc2C(=O)N2Cc4ccccc4C[C@H]2C)CN(C(=O)Cc2ccc(OCCN4CCOCC4)cc2F)CC3)n1C` [Example 197, 5-[2-[2-[2-fluoro-4-(2-morpholinoethoxy)phenyl]acetyl]-7-[(3R)-3-methyl-3,4-dihydro-1H-isoquinoline-2-carbonyl]-3,4-dihydro-1H-isoquinolin-6-yl]-1,2-dimethyl-N-(1-methylpyrazol-4-yl)-N-phenyl-pyrrole-3-carboxamide], the Ki on BCL2 WT was determined as 0.02 nM; at BCL2 D103Y it was 0.05 nM; at BCLXL WT, 9.9 nM; on BCL2 G101V [2], 1.2 nM. Further, the “TR_FRET EKI BCLxL/WT selectivty ratio” value at BCLXL WT worked out at 523.3. Also, the “TR_FRET EKI G101V/WT selectivty ratio” value in the assay on BCL2 G101V [1] is 63.9. This compound also displayed an IC50 in the assay with KMS-12-PE Bcl-2 WT of 0.0023 µM.

In the case of `Cc1c(C(=O)N(c2ccc(F)cc2)c2cnn(C)c2)cc(-c2cc3c(cc2C(=O)N2Cc4ccccc4C[C@H]2C)CN(C(=O)Cc2ccc(OCCN4CCOCC4)cc2)CC3)n1C` [Example 200, N-(4-fluorophenyl)-1,2-dimethyl-5-[7-[(3R)-3-methyl-3,4-dihydro-1H-isoquinoline-2-carbonyl]-2-[2-[4-(2-morpholinoethoxy)phenyl]acetyl]-3,4-dihydro-1H-isoquinolin-6-yl]-N-(1-methylpyrazol-4-yl)pyrrole-3-carboxamide], the Ki at BCL2 WT was 0.06 nM; on BCL2 D103Y it was 0.15 nM; at BCLXL WT, 26 nM; at BCL2 G101V [2], 5.5 nM. Besides, at BCLXL WT, the “TR_FRET EKI BCLxL/WT selectivty ratio” value is 419.8. For the same compound, the “TR_FRET EKI G101V/WT selectivty ratio” value in the assay with BCL2 G101V [1] is on record as 88.0. The compound further had an IC50 in the assay with KMS-12-PE Bcl-2 WT of 0.0155 µM.

With `COc1ncc(N(C(=O)c2cc(-c3cc4c(cc3C(=O)N3Cc5ccccc5C[C@H]3C)CN(C(=O)Cc3ccc(OCCN5CCOCC5)cc3F)CC4)n(C)c2C)c2ccccc2)cc1C#N` [Example 202, N-(5-cyano-6-methoxy-3-pyridyl)-5-[2-[2-[2-fluoro-4-(2-morpholinoethoxy)phenyl]acetyl]-7-[(3R)-3-methyl-3,4-dihydro-1H-isoquinoline-2-carbonyl]-3,4-dihydro-1H-isoquinolin-6-yl]-1,2-dimethyl-N-phenyl-pyrrole-3-carboxamide], the Ki at BCL2 WT was found to be 0.05 nM; on BCL2 D103Y it was 0.11 nM; at BCLXL WT it was 10.9 nM; on BCL2 G101V [2] it was 1.2 nM. The “TR_FRET EKI BCLxL/WT selectivty ratio” value on BCLXL WT was 214.7. Moreover, in the assay on BCL2 G101V [1], the “TR_FRET EKI G101V/WT selectivty ratio” value stood at 22.9. In the assay on KMS-12-PE Bcl-2 WT, this compound yielded an IC50 of 0.0256 µM.
